Data from ChEMBL document CHEMBL1201862, “PubChem BioAssay data set” (2004).
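A five-concentration, 48-hour dose response in 96-well plates underlies each endpoint, interpolated linearly between surrounding concentrations. GI50 = concentration required for 50% inhibition of growth.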 Active and inactive are the calls of the source. No stated cut-off is given here; in the data, active = GI50 up to about 1.1 µM and inactive = higher.

How the values were obtained:
Assay in all cases: DTP human tumour cell line panel, 48 h
[1] = test system: M19-MEL
[2] = test system: OVCAR-5
[3] = test system: A498
[4] = test system: KM12
[5] = test system: HOP-62
[6] = test system: HCC 2998
[7] = test system: ACHN
[8] = test system: NCI-H226
[9] = test system: Malme-3M
[10] = test system: OVCAR-4
[11] = test system: UACC-62
[12] = test system: HT-29
[13] = test system: SNB-78
[14] = test system: XF498
[15] = test system: SNB-75
[16] = test system: U-251
[17] = test system: RXF 393
[18] = test system: NCI-H522
[19] = test system: M14
[20] = test system: LOX IMVI
[21] = test system: SK-OV-3
[22] = test system: KM-20L2
[23] = test system: SK-MEL-5
[24] = test system: HOP-92
[25] = test system: HCT-116
[26] = test system: DMS-114
[27] = test system: UACC-257
[28] = test system: DLD-1
[29] = test system: SNB-19
[30] = test system: SF-295
[31] = test system: SR
[32] = test system: SF-539
[33] = test system: HCT-15
[34] = test system: UO-31
[35] = test system: TK-10
[36] = test system: DMS-273
[37] = test system: 786-0
[38] = test system: SK-MEL-2
[39] = test system: EKVX
[40] = test system: OVCAR-8
[41] = test system: SN12C
[42] = test system: NCI-H460
[43] = test system: CAKI-1
[44] = test system: IGROV-1
[45] = test system: OVCAR-3
[46] = test system: RPMI-8226
[47] = test system: SW-620
[48] = test system: LXFL 529
[49] = test system: NCI-H23
[50] = test system: A549
[51] = test system: MOLT-4
[52] = test system: SK-MEL-28
[53] = test system: K562
[54] = test system: CCRF-CEM
[55] = test system: HL-60
[56] = test system: COLO 205
[57] = test system: SF-268

**Q.** For `C/C=C/C1(C)/C(=N\O)C(C)(CCC)C(=O)N1O` (stereo not given), which GI50 [1] is on record?
**A.** > 100 µM (inactive)

**Q.** And the GI50 [2]?
**A.** > 100 µM (inactive)

**Q.** And the GI50 [3]?
**A.** > 100 µM (inactive)

**Q.** And the GI50 [4]?
**A.** > 100 µM (inactive)

**Q.** What about the GI50 [5] of the same compound?
**A.** > 100 µM (inactive)

**Q.** What about the GI50 [6] of the same compound?
**A.** > 100 µM (inactive)

**Q.** And the GI50 [7]?
**A.** > 100 µM (inactive)

**Q.** And the GI50 [8]?
**A.** > 100 µM (inactive)

**Q.** And the GI50 [9]?
**A.** > 100 µM (inactive)

**Q.** What about the GI50 [10] of the same compound?
**A.** > 100 µM (inactive)

**Q.** And the GI50 [11]?
**A.** > 100 µM (inactive)

**Q.** What about the GI50 [12] of the same compound?
**A.** > 100 µM (inactive)

**Q.** And the GI50 [13]?
**A.** > 100 µM (inactive)

**Q.** And the GI50 [14]?
**A.** > 100 µM (inactive)

**Q.** And the GI50 [15]?
**A.** > 100 µM (inactive)

**Q.** And the GI50 [16]?
**A.** > 100 µM (inactive)

**Q.** And the GI50 [17]?
**A.** > 100 µM (inactive)

**Q.** What about the GI50 [18] of the same compound?
**A.** > 100 µM (inactive)

**Q.** And the GI50 [19]?
**A.** > 100 µM (inactive)

**Q.** What about the GI50 [20] of the same compound?
**A.** > 100 µM (inactive)

**Q.** And the GI50 [21]?
**A.** > 100 µM (inactive)

**Q.** And the GI50 [22]?
**A.** > 100 µM (inactive)

**Q.** What about the GI50 [23] of the same compound?
**A.** > 100 µM (inactive)

**Q.** What about the GI50 [24] of the same compound?
**A.** > 100 µM (inactive)

**Q.** And the GI50 [25]?
**A.** > 100 µM (inactive)

**Q.** And the GI50 [26]?
**A.** > 100 µM (inactive)

**Q.** And the GI50 [27]?
**A.** > 100 µM (inactive)

**Q.** And the GI50 [28]?
**A.** > 100 µM (inactive)

**Q.** What about the GI50 [29] of the same compound?
**A.** > 100 µM (inactive)

**Q.** And the GI50 [30]?
**A.** > 100 µM (inactive)

**Q.** And the GI50 [31]?
**A.** > 100 µM (inactive)

**Q.** And the GI50 [32]?
**A.** > 100 µM (inactive)

**Q.** And the GI50 [33]?
**A.** > 100 µM

**Q.** What about the GI50 [34] of the same compound?
**A.** > 100 µM (inactive)

**Q.** And the GI50 [35]?
**A.** > 100 µM (inactive)

**Q.** And the GI50 [36]?
**A.** > 100 µM (inactive)

**Q.** And the GI50 [37]?
**A.** > 100 µM (inactive)

**Q.** What about the GI50 [38] of the same compound?
**A.** > 100 µM (inactive)

**Q.** And the GI50 [39]?
**A.** > 100 µM (inactive)

**Q.** What about the GI50 [40] of the same compound?
**A.** > 100 µM (inactive)

**Q.** And the GI50 [41]?
**A.** > 100 µM (inactive)

**Q.** And the GI50 [42]?
**A.** > 100 µM (inactive)

**Q.** And the GI50 [43]?
**A.** > 100 µM (inactive)

**Q.** And the GI50 [44]?
**A.** > 100 µM (inactive)

**Q.** What about the GI50 [45] of the same compound?
**A.** > 100 µM (inactive)

**Q.** And the GI50 [46]?
**A.** > 100 µM (inactive)

**Q.** What about the GI50 [47] of the same compound?
**A.** > 100 µM (inactive)

**Q.** And the GI50 [48]?
**A.** > 100 µM (inactive)

**Q.** And the GI50 [49]?
**A.** > 100 µM (inactive)

**Q.** What about the GI50 [50] of the same compound?
**A.** > 100 µM (inactive)

**Q.** What about the GI50 [51] of the same compound?
**A.** > 100 µM (inactive)

**Q.** What about the GI50 [52] of the same compound?
**A.** > 100 µM (inactive)

**Q.** And the GI50 [53]?
**A.** > 100 µM (inactive)

**Q.** And the GI50 [54]?
**A.** > 100 µM (inactive)

**Q.** And the GI50 [55]?
**A.** > 100 µM (inactive)

**Q.** What about the GI50 [56] of the same compound?
**A.** > 100 µM (inactive)

**Q.** Which results are given for `CC(C)CN1CC(C)C(=O)NC1=O` (stereo not given)?
**A.** GI50 [1]: > 100 µM (inactive); GI50 [2]: > 100 µM (inactive); GI50 [3]: > 100 µM (inactive); GI50 [4]: > 100 µM (inactive); GI50 [5]: > 100 µM (inactive); GI50 [7]: > 100 µM (inactive); GI50 [8]: > 100 µM (inactive); GI50 [9]: > 100 µM (inactive); GI50 [10]: > 100 µM (inactive); GI50 [11]: > 100 µM (inactive); GI50 [12]: > 100 µM (inactive); GI50 [13]: > 100 µM (inactive); GI50 [14]: > 100 µM (inactive); GI50 [16]: > 100 µM (inactive); GI50 [17]: > 100 µM (inactive); GI50 [57]: > 100 µM (inactive); GI50 [18]: > 100 µM (inactive); GI50 [20]: > 100 µM (inactive); GI50 [21]: > 100 µM (inactive); GI50 [22]: > 100 µM (inactive); GI50 [23]: > 100 µM (inactive); GI50 [24]: > 100 µM (inactive); GI50 [26]: > 100 µM (inactive); GI50 [27]: > 100 µM (inactive); GI50 [28]: > 100 µM (inactive); GI50 [29]: > 100 µM (inactive); GI50 [30]: > 100 µM (inactive); GI50 [31]: > 100 µM (inactive); GI50 [32]: > 100 µM (inactive); GI50 [34]: > 100 µM (inactive); GI50 [35]: > 100 µM (inactive); GI50 [36]: > 100 µM (inactive); GI50 [37]: > 100 µM (inactive); GI50 [38]: > 100 µM (inactive); GI50 [39]: > 100 µM (inactive); GI50 [40]: > 100 µM (inactive); GI50 [41]: > 100 µM (inactive); GI50 [42]: > 100 µM (inactive); GI50 [43]: > 100 µM (inactive); GI50 [47]: > 100 µM (inactive); GI50 [48]: > 100 µM (inactive); GI50 [49]: > 100 µM (inactive); GI50 [50]: > 100 µM (inactive); GI50 [51]: > 100 µM (inactive); GI50 [52]: > 100 µM (inactive); GI50 [53]: > 100 µM (inactive); GI50 [54]: > 100 µM (inactive); GI50 [55]: > 100 µM (inactive); GI50 [56]: > 100 µM (inactive)
